Assay results from publication PMC6412381, “Covalently Linking Oligomerization-Impaired GlpF Protomers Does Not Completely Re-establish Wild-Type Channel Activity” (International Journal of Molecular Sciences, 2019).

Legend:
[1] = biological target: T1, GlpF WT (non-fused) (Escherichia coli, UniProt P0AER0); experiment: stopped-flow light scattering of E. coli SK46 cells, re-swelling by ribitol influx; type: cell-based; conditions: LB medium, mixed with equal volume of 600 mM ribitol, 25 °C, 500 µM IPTG induction; transport through channel
T1 construct: expressed from pMalp2-based plasmid in E. coli SK46 lacking GlpF and AqpZ
T1 sequence (P0AER0 1-281): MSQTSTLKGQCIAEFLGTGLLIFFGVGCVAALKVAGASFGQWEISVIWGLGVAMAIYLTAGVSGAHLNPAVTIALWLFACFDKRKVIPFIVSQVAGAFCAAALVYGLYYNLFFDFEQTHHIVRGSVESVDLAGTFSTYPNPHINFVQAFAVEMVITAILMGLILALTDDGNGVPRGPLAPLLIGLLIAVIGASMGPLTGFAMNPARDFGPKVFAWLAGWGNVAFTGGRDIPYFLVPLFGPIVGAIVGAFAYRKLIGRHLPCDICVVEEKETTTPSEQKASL

[2] = biological target: T2, WT4 (genetically fused GlpF tetramer) (Escherichia coli, UniProt P0AER0); experiment: as above; type: cell-based; conditions: LB medium, mixed with equal volume of 600 mM ribitol, 25 °C, 500 µM IPTG induction; transport through channel
T2 construct: four full-length GlpF copies fused in one polypeptide, N-terminal extension MGSGLE, Val-Glu linkers between monomers, calculated 120 kDa; expressed in E. coli SK46 lacking GlpF and AqpZ
T2 sequence (P0AER0 1-281): T1 sequence (P0AER0 1-281)

## OC[C@@H](O)[C@@H](O)[C@@H](O)CO [ribitol]
[1]
  k (flux rate constant): the ribitol conductance of the fused GlpF tetramer was slightly decreased compared to the non-fused
[2]
  k (flux rate constant): yet the WT4 protein was still highly active
